Results published in US20090117563A1, “Identification of TRPML3 (MCOLN3) as a Salty Taste Receptor and Use in Assays for Identifying Taste (Salty) Modulators and/or Therapeutics that Modulate Sodium Transport, Absorption or Excretion and/or Aldosterone and/or Vasopressin Production or Release” (priority 2007, published 2009).

Legend:
A419P TRPML3 [1] = target: T1, A419P TRPML3 (Homo sapiens, UniProt Q8TDD5, A419P); assay: Whole cell voltage clamp, A419P TRPML3 stably expressed in CHO cells; format: cell-based; settings: 1 mM GdCl3 compared to buffer alone
T1 construct: expressed in transfected cells
T1 sequence (Q8TDD5 1-553 A419P): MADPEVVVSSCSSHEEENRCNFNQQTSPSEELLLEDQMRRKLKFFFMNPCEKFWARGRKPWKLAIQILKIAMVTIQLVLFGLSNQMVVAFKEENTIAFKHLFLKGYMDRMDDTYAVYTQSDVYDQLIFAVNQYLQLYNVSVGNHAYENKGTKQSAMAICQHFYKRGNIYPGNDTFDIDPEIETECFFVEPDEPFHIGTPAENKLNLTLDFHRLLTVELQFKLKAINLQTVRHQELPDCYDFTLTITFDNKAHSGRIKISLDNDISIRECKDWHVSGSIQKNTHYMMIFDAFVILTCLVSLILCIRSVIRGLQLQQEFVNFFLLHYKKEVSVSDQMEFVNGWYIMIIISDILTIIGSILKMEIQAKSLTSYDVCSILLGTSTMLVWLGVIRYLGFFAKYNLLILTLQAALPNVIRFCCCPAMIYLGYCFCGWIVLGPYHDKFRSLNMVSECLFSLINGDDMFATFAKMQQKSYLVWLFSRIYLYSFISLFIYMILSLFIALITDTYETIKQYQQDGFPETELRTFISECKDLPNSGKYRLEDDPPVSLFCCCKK
Excerpt: The whole cell voltage clamp technique is an electrophysiology method that measures the macroscopic electrical current flowing across the entire plasma membrane though protein channels. Live mammalian cells are placed in a special microscope chamber containing extracellular solution. Guided by a micromanipulator and under visual control, a small diameter glass pipette filled with an electrically conductive salt solution is first attached to the cell membrane using gentle negative pressure resulting in a high resistance gigaOhm seal. The membrane patch within the pipette is disrupted using further suction resulting in the whole cell patch clamp configuration. The whole cell patch clamp configuration allows the combined measurement of all ion channels proteins within the membrane or macroscopic current. Using the patch clamp amplifier in combination with the whole-cell patch clamp configuration allows the operator to control the voltage, or potential difference across the entire cell membrane, as well as the both the internal and external ionic composition of the cell. […]

A419P TRPML3 [2] = target: T1, A419P TRPML3; assay: FLIPR membrane potential dye assay, HEK293 cells expressing A419P-TRPML3; format: cell-based; settings: for effect on basal fluorescence, dose dependence: increasing concentrations of gadolinium, compared to RFP-transfected cells
Excerpt: Specific cell-based assays for the discovery of TRPML3 modulators were developed which that could ultimately be used in food and beverages to modulate saltiness perception. A419P-TRPML3 function was monitored in HEK293 cells transiently transfected or transduced with the gene encoding A419P-TRPML3 and using specific membrane potential dyes (FMPs; Molecular Devices).
HEK293 cells were transiently transfected with RFP, αENaC or A419P-TRPML3 and were loaded with a membrane potential dye (R-8034; Molecular Devices) in HBSS at room temperature for 30 minutes. Membrane potential (fluorescent signal) was monitored on a FLIPR system (Molecular Devices).
HEK293 cells were transiently transfected with RFP or A419P-TRPML3 and were loaded with a membrane potential dye (R-8034; Molecular Devices) in HBSS at room temperature for 30 minutes. Membrane potential (fluorescent signal) was monitored on a FLIPR system (Molecular Devices).
HEK293 cells were transiently transfected with RFP or A419P-TRPML3 and were loaded with a membrane potential dye (R-8034; Molecular Devices) in HBSS at room temperature for 30 minutes. HBSS, NMDG and increasing concentrations of gadolinium were added to the cells and resulting changes in membrane potential (fluorescent signal) was monitored on a FLIPR system (Molecular Devices).
HEK293 cells were transiently transfected with RFP, A419P-TRPML3 or αENaC plasmid and were loaded with a membrane potential dye (R-8034; Molecular Devices) in HBSS at room temperature for 30 minutes. HBSS (control), 3 mM gadolinium and 30 uM Amiloride were added to the cells and resulting changes in membrane potential (fluorescent signal) was monitored on a FLIPR system (Molecular Devices).

Compound: [Cl][Gd]([Cl])[Cl] [gadolinium, gadolinium chloride]
- effect on inward current (A419P TRPML3 [1]; listed as Gadolinium chloride): blocked
- effect on inward current (A419P TRPML3 [1]; listed as GdCl3): decrease in inward current
- effect on basal fluorescence counts, specificity (A419P TRPML3 [2]; 3 mM gadolinium, A419P-TRPML3 versus αENaC transfected cells): preferentially reduces basal fluorescence counts
- effect on basal fluorescence, dose dependence (A419P TRPML3 [2]): significantly reduces the basal fluorescence
- effect on basal fluorescence, dose dependence (A419P TRPML3 [2]; listed as Gadolinium): reversed the increase in fluorescence in a dose-dependent and specific fashion
- effect on basal fluorescence (membrane potential) (A419P TRPML3 [2]; transiently transfected HEK293, single addition of gadolinium): significantly reduces the basal fluorescence
